The subject of test [1] is non-diabetic male NOD recipients. The method, then: CYTOXAN induction experiments: CYTOXAN (Cyclophosphamide) treatment can increase the incidence and accelerate the onset of diabetes in non-diabetic NOD mice. Randomly selected, non-diabetic male NOD mice, which were 100 to 110 days of age, were injected (ip) with cyclophosphamide (250 mg/kg) on day 0.
All the mice were subjected to urine glucose measurement 2-3 times per week for a period of 21 days after cyclophosphamide injection. The onset of diabetes was recorded as the first point at which two consecutive days of positive urine glucose results were obtained. Blood glucose was also measured to confirm the urine glucose results. […] At day 21, these mice were sacrificed and examined histologically.

The test system of test [2] is non-diabetic male NOD mice. The experiment in a line: CYTOXAN (cyclophosphamide) induced IDDM model, antigen treatment. The class given is in vivo, mouse. To be noted: FIG. 3. The source says:
Experimental Methods Non-obese diabetic (NOD) mice are a strain of mice that are prone to the development of diabetes, and represent an accepted model system for the study of diabetes mellitus. These mice, designated NOD/MrkTacfBR, were purchased from Taconic Farms (Germantown, N.Y.). NOD SCID mice, designated NOD/SCID, are available from the Jackson Laboratories, Bar Harbor, Me. The incidence of diabetes by 200 days of age in these mice is 80% in females and 50% in males. At 110 days of age, fewer than 15% of the male NOD mice became diabetic. […] In contrast, animals treated with either ICB or either of GAD 65 250-273 or 520-555 peptides, experienced reductions to less than 50% incidence of diabetes. The therapeutic effects of treatment with combinations of ICB and the two GAD peptides were then examined (FIG. 3).

Test [3] deals with NOD/SCID mice injected with diabetogenic spleen cells. The experiment in a line: NOD/SCID adoptive transfer model of IDDM. The format is in vivo, mouse. Particulars: IV, 300 ugs of antigen twice daily every other day, day 3 to day 9 after spleen cell transfer; FIG. 5. The method, then:
Experiments in the NOD/SCID Adoptive Transfer Model: Spleen mononuclear cells were harvested from diabetic NOD mice of recent disease onset (diabetic not more than 3 weeks) and about 35×10^6 of these spleen cells in 0.2 ml of PBS were injected intravenously into 6-8 week old NOD/SCID mice. Onset of diabetes was monitored biweekly by urine glucose testing and confirmed by blood glucose testing on day 28 relative to the time of spleen cell transfer. At day 28, these mice were sacrificed and examined histologically.
Diabetogenic splenic mononuclear cells were harvested from newly diabetic NOD mice (onset less than 3 weeks previous). To initiate the destruction of islet beta cells and the development of diabetes, 8-12 week old NOD/SCID mice were injected intravenously with 35×10^6 diabetogenic spleen cells. The incidence and onset of diabetes were monitored biweekly by urine glucose testing and confirmed by blood glucose testing at the end of the experiment. The average onset time of diabetes after disease induction was approximately 25 days. IV treatment with IG2, IG3, or islet beta cell antigens was initiated on day 3. Animals were treated with 300 ugs of antigen twice daily every other day for a period of six days (from day 3 to day 9, where the time of spleen cell transfer was day 0).

Where two headings read alike, the source gives them in different places.

For `O=P1(N(CCCl)CCCl)NCCCO1` (centres unmarked) [CYTOXAN, cyclophosphamide], in test [1] (CYTOXAN 200 mg/kg), the “# Diabetic/Total” value is reported as 2/7, the “% diabetic” value came to 28.6% and the Mean onset time is 12. Moreover, in test [1] (CYTOXAN 250 mg/kg), the “# Diabetic/Total” value is 5/7, the “% diabetic” value was 71.4% and the Mean onset time is 11. Also, in test [1] (CYTOXAN 300 mg/kg), the “# Diabetic/Total” value is reported as 5/7, the “% diabetic” value amounted to 71.4% and the Mean onset time turned out to be 12.6.

As to “GAD 65 520-555: human GAD 65 peptide 520-555, sequence corresponding to amino acid residues 139-173 of SEQ ID NO:2 (EERMSRLSKVAPVIKARMMEYGTTMVSYQPLGDKV; IG2 fusion protein for hGAD65 (human glutamate decarboxylase))”, the “effect of addition to the ICB with GAD 65 250-273 combination on therapeutic efficacy” value in test [2] is given as “appeared to inhibit the therapeutic efficacy”.

For “ICB: Oxidized bovine insulin Chain B purchased from Sigma (catalog no. I-6383)”, the “onset of disease in NOD/SCID recipients” value in test [3] is “only a slight delay in disease onset”.
